Experimental data from PubChem BioAssay (NCI).
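Exposure lasted 48 hours, with cells grown in 96-well plates and compounds tested at five concentrations. TGI: concentration producing complete growth inhibition.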

What was measured:
Test in all cases: NCI tumour cell line growth inhibition, 48 h
[1] = tested on: 786-0 renal
[2] = tested on: A498 renal
[3] = tested on: A549 NSCLC
[4] = tested on: ACHN renal
[5] = tested on: BT-549 breast
[6] = tested on: CAKI-1 renal
[7] = tested on: CCRF-CEM leukemia
[8] = tested on: COLO 205 colon
[9] = tested on: DU-145 prostate
[10] = tested on: EKVX NSCLC
[11] = tested on: HCT-116 colon
[12] = tested on: HCT-15 colon
[13] = tested on: HL-60(TB) leukemia
[14] = tested on: HOP-62 NSCLC
[15] = tested on: HOP-92 NSCLC
[16] = tested on: HS 578T breast
[17] = tested on: HT29 colon
[18] = tested on: IGROV1 ovarian
[19] = tested on: K-562 leukemia
[20] = tested on: KM12 colon
[21] = tested on: LOX IMVI melanoma
[22] = tested on: M14 melanoma
[23] = tested on: MALME-3M melanoma
[24] = tested on: MCF7 breast
[25] = tested on: MDA-MB-231 breast
[26] = tested on: MDA-MB-435
[27] = tested on: MDA-N
[28] = tested on: MOLT-4 leukemia
[29] = tested on: NCI-H226 lung
[30] = tested on: NCI-H23 lung
[31] = tested on: NCI-H460 lung
[32] = tested on: NCI-H522 lung
[33] = tested on: NCI/ADR-RES ovarian
[34] = tested on: OVCAR-3 ovarian
[35] = tested on: OVCAR-4 ovarian
[36] = tested on: OVCAR-5 ovarian
[37] = tested on: OVCAR-8 ovarian
[38] = tested on: PC-3 prostate
[39] = tested on: RPMI-8226 leukemia
[40] = tested on: RXF 393 renal
[41] = tested on: SF-268 CNS
[42] = tested on: SF-295 CNS
[43] = tested on: SF-539 CNS
[44] = tested on: SK-MEL-2 melanoma
[45] = tested on: SK-MEL-28 melanoma
[46] = tested on: SK-MEL-5 melanoma
[47] = tested on: SK-OV-3 ovarian
[48] = tested on: SN12C renal
[49] = tested on: SNB-19 CNS
[50] = tested on: SNB-75 CNS
[51] = tested on: SR leukemia
[52] = tested on: SW-620 colon
[53] = tested on: T-47D breast
[54] = tested on: TK-10 renal
[55] = tested on: U251 CNS
[56] = tested on: UACC-257 melanoma
[57] = tested on: UACC-62 melanoma
[58] = tested on: UO-31 renal
[59] = tested on: HCC-2998 colon

Measured: TGI

O=C(O)C1(C(=O)O)CCN(S(=O)(=O)c2ccccc2)CC1
not listed: [59]
> 100 µM: all other assays above

O=C(CCNC(=O)OCc1ccccc1)OCCCNC(=O)OCc1ccccc1
not listed: [2] | [6] | [10] | [44]
> 100 µM: all other assays above
